Data from article PMC7869897, “Structure–functional relationship of cellular retinoic acid-binding proteins I and II interacting with natural and synthetic ligands” (Acta Crystallographica. Section D, Structural Biology, 2021).

Experiments:
Format in all cases: binding
[1] = target: T1, CRABPII (Homo sapiens, UniProt P29373); assay: solvatochromic fluorescence probe, with and without CRABPII; displaced by DC645
T1 construct: gene CRABP2; GST-tagged, tag cleaved with thrombin
T1 sequence (P29373 1-138): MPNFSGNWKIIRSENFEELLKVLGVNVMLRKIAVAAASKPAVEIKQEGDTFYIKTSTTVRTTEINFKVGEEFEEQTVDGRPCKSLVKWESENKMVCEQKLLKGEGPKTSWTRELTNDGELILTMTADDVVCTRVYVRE

[2] = target: T2, CRABPI (Homo sapiens, UniProt P29762, L29C); assay: fluorescent probe displaced by DC645
T2 construct: gene CRABP1; His-tagged, tag cleaved with thrombin

[3] = target: T1, CRABPII; assay: co-crystal structure ([…] Å) and competitive fluorescence displacement of DC271
[4] = target: T2, CRABPI; assay: as above
[5] = target: T2, CRABPI; assay: crystal structure ([…] Å); co-purified fatty acid density modelled as myristic acid
[6] = target: T1, CRABPII; assay: co-crystal structure ([…] Å)

T2 sequence (P29762 whole entry L29C): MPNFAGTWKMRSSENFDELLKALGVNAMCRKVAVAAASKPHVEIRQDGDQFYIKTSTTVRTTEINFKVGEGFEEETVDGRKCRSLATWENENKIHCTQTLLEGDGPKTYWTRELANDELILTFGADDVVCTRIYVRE

CC(C)N1CCC(C)(C)c2cc(C#Cc3ccc(C(=O)O)cc3)ccc21 [DC271]
solvatochromic fluorescence probe, with and without CRABPII; displaced by DC645 [1]: DC271 presents a stark solvatochromic effect when in the presence of CRABPII owing to inclusion into the binding site
fluorescent probe displaced by DC645 [2]: Competitive displacement of DC271 from CRABPI-L29C by DC645 was carried out

CC1(C)CCC(C)(C)c2nc(C#Cc3ccc(C(=O)O)cc3)cnc21 [DC645]
Kd [3]: 250 ± 60 nM
Kd [4]: 1940 ± 110 nM

CCCCCCCCCCCCCC(=O)O [MYR, myristic acid]
crystal structure (1.64 Å); co-purified fatty acid density modelled as myristic [5]: a conserved water molecule hydrogen-bonded to the associated ligand modelled as the 14-carbon myristic acid

CC(C)N1CCC(C)(C)c2ccc(-c3ccc(/C=C/C(=O)O)cc3)cc21 [DC479]
co-crystal structure (1.80 Å) [6]: DC479 occupies the binding site fully, with its carboxylic acid head buried adjacent to the canonical binding triad
